Measurements reported in PMC5572697, “A first-in-human study of the novel HIV-fusion inhibitor C34-PEG4-Chol” (Scientific Reports, 2017).
Entries after “also recorded” stand apart in the source; their conditions may differ.

Legend:
[1] = Repeat-dose toxicity study in mice; type: in vivo; conditions: mouse, in vivo, sc, subcutaneous, daily for 14 days, 7-day recovery, read-out: No-observed-adverse-effect-level (NOAEL)
Method: (§1) Pre-clinical toxicology studies were conducted in 2 species (rodent/mice and non-rodent/dogs). Multiple high doses of C34-PEG4-Chol, up to 12 mg/kg or 10 x the maximum proposed human dose, were administered daily in mice and twice weekly (the intended frequency in humans) in dogs for 14 days, with a 7-day recovery period for both species. […] Toxicology results were analysed independently by the Medicines and Healthcare Regulatory Authority (MHRA), UK before a decision was made to proceed with trial in humans.
(§2) Repeat-dose toxicity studies were conducted in mice (n = 20 at 6 mg/kg/day, n = 20 at 12 mg/kg/day) and dogs (n = 6 at 6 mg/kg/day, n = 6 at 12 mg/kg/day). The subcutaneous route of administration was selected for both species. The highest dose of 12 mg/kg/day was based on the maximal achievable dose with the formulation, and corresponded to 10x the maximum proposed human dose (80 mg, 1.15 mg/kg). No premature decedents occurred in either species. Following observation, animals were euthanised.

[2] = test system: mice; test: Repeat-dose toxicity study in mice; type: in vivo; conditions: subcutaneous
Method: as §1, §2

[3] = test system: dogs; test: Repeat-dose toxicity study in dogs; type: in vivo; conditions: subcutaneous
Method: as §1, §2

[4] = Human plasma pharmacokinetics after a single subcutaneous dose; type: in vivo; parameters: Area under plasma-concentration-time-curve: unit not given here; conditions: for half-life / Cmax / Tmax / Vd: sc; for Cmax: LC-MS/MS, non-compartmental, read-out: Maximum observed concentration; for Tmax: read-out: Time to maximum observed concentration; for Vd: read-out: Volume of distribution; for Time-to-MEC (time plasma concentrations remained above the minimum effective concentration): assay cut-off 62.5 ng/mL used as surrogate
Method: Intensive pharmacokinetic sampling was performed over the first 24 hours subsequent to dosing with samples collected pre-dose, 0.5 h, 1 h, 2 h, 4 h, 6 h, 8 h, 12 h, 24 h. Thereafter pharmacokinetic sampling was undertaken on days 2, 3, 4, 7, 10, 14, 21 and 28. Plasma samples (100 µL) were extracted in 300 µL of acetonitrile containing 1% formic acid; vortexed and centrifuged at 4000 rpm for 10 minutes. The supernatant was transferred into autosampler vials, and 25 μL injected onto the LC-MS/MS. Quantitative analysis of C34-PEG4-Chol was performed by LC-MS/MS using a Thermo Quantum Access triple quadrupole mass spectrometer, interfaced with a heated electrospray ionisation (H-ESI) source (Thermo Fisher Scientific, Hemel Hempstead, UK). The HPLC system included a variable loop Accela autosampler and an Accela pump (ThermoScientific, Hemel Hempstead, UK). Chromatographic separation was achieved using a reverse-phase XBridge Peptide BEH C18 column (3.5 µm; 50 mm × 2.1 mm) (Waters Corporation, Milford, US) interfaced with a 2 µm C18 Quest column saver (Thermo Scientific, Hemel Hempstead, UK). The gradient mobile phase, consisting of a solvent A (0.1% formic acid in Water) and solvent B (0.1% formic acid in acetonitrile), was delivered at a flow rate of […]. Detection of C34-PEG4-Chol was performed in the pseudo Selected Reaction Monitoring mode, monitoring a triple charged molecular ion [M + 3 H]3 + at m/z 1756.8. The internal standard (quinoxaline), was monitored at m/z 313.1 → 246.1. Peak area ratios of compound to internal standard were utilized to construct a calibration curve with a weighting of 1/x2. Data acquisition and processing was performed using LCQuan software (Version 2.7, Thermo Scientific, Hemel Hempstead, UK). The assay calibration range was between 62.5–10,000 ng/mL; inter and intra-assay accuracy and precision at the assay limit of quantification (LLQ) fell within the designated ±20% of the nominal value, and were within ±15% for all QC levels.
Pharmacokinetic parameters were derived via non-compartmental modeling. The area-under-the-concentration-time-curve (AUC) was calculated following a single dose, assuming linear decrease over time, by linear trapezoidal method. The maximum concentration (Cmax) observed at each dose and the time-to-Cmax (Tmax) were calculated. The time to reach minimum effective concentration was assessed in order to determine the frequency of future dosing regimens. […] Given our assay cut-off was 62.5 ng/mL, our assay cut off was used as a surrogate for the IC90.

[5] = in vivo; conditions: mouse, C57BL/6 mice; for AUC(0-inf): plasma LC-MS, mean of three animals per point
Method: C34-PEG4-Chol first in man – Supplementary Information
Supplementary Information 2:
Preclinical Pharmacokinetics of C34-PEG4-Chol […]
C34-PEG4-Chol was formulated in 10 mM phosphate buffered saline (pH 7.2). The concentration of C34-PEG4-Chol in plasma samples was determined by LC-MS as previously […]
The PK of C34-PEG4-Chol in C57BL/6 mice following intravenous (IV) and subcutaneous (SC) dosing is shown in […]
Figure S2: Pharmacokinetics of C34-PEG4-Chol in mice. 3.5 mg/kg or 1.0 mg/kg (SC and IV, respectively) of C34-PEG4-Chol in 10mM phosphate buffered saline (PBS) were administered to C57BL/6 mice: volume of administration 5 mL/kg and 2 mL/kg for SC and IV administration, respectively. The concentration of the dosing solution was determined immediately after dosing with the same analytical method utilized to monitor peptide plasma concentration with time, and the analytical curves were adjusted accordingly (SC dose 0.56 mg/mL, theor.
0.5 mg/mL; IV dose 0.62 mg/mL, theor. 0.7 mg/mL). Each data point is the mean of three animals.
(1 picture or pasted object on this page, not shown here) […]

[6] = human, in vivo, 10 mg, participant 1, single SC 10 mg
[7] = human, in vivo, 10 mg, participant 3, single SC 10 mg
[8] = human, in vivo, 20 mg, participant 5, single SC 20 mg

CC[C@H](C)[C@H](NC(=O)[C@H](CC(C)C)NC(=O)[C@H](CO)NC(=O)[C@H](Cc1c[nH]cn1)NC(=O)[C@@H](NC(=O)[C@H](CC(C)C)NC(=O)[C@H](CO)NC(=O)[C@@H](NC(=O)[C@H](Cc1ccc(O)cc1)NC(=O)[C@H](CC(N)=O)NC(=O)[C@H](CC(N)=O)NC(=O)[C@@H](NC(=O)[C@H](CCC(=O)O)NC(=O)[C@H](CCCNC(=N)N)NC(=O)[C@H](CC(=O)O)NC(=O)[C@H](Cc1c[nH]c2ccccc12)NC(=O)[C@H](CCC(=O)O)NC(=O)[C@H](CCSC)NC(=O)[C@H](Cc1c[nH]c2ccccc12)NC(C)=O)[C@@H](C)CC)[C@@H](C)O)[C@@H](C)CC)C(=O)N[C@@H](CCC(=O)O)C(=O)N[C@@H](CCC(=O)O)C(=O)N[C@@H](CO)C(=O)N[C@@H](CCC(N)=O)C(=O)N[C@@H](CC(N)=O)C(=O)N[C@@H](CCC(N)=O)C(=O)N[C@@H](CCC(N)=O)C(=O)N[C@@H](CCC(=O)O)C(=O)N[C@@H](CCCCN)C(=O)N[C@@H](CC(N)=O)C(=O)N[C@@H](CCC(=O)O)C(=O)N[C@@H](CCC(N)=O)C(=O)N[C@@H](CCC(=O)O)C(=O)N[C@@H](CC(C)C)C(=O)N[C@@H](CC(C)C)C(=O)NCC(=O)N[C@@H](CO)C(=O)NCC(=O)N[C@@H](CSCC(=O)NCCOCCOCCOCCOCCC(=O)O[C@H]1CC[C@@]2(C)C(=CC[C@H]3[C@@H]4CC[C@H]([C@H](C)CCCC(C)C)[C@@]4(C)CC[C@@H]32)C1)C(N)=O [C34-PEG4-Chol]
NOAEL at 336 h [1]: 12 mg/kg/day
Injection site reactions (ISRs) [2]: had not been observed
Tolerability ([2]; up to 12 mg/kg/day for 14 days): well tolerated
Tolerability ([3]; 6 and 12 mg/kg, 14 days): well tolerated
Injection site findings ([3]; also seen in controls, greater severity with the peptide): some subcutaneous inflammation at the injection sites; also recorded: mild and reversible
half-life [4, 6]: 48 h
Cmax ([4]; human, in vivo, 10 mg, participant 1, single SC 10 mg, plasma): 418 ng/mL
Tmax [4, 6]: 2 h
Vd [4, 6]: 24 L
half-life [4, 7]: 54 h
Cmax ([4]; human, in vivo, 10 mg, participant 3, single SC 10 mg, plasma): 278 ng/mL
Tmax [4, 7]: 6 h
Vd [4, 7]: 39.5 L
half-life [4, 8]: 46 h
Cmax ([4]; human, in vivo, 20 mg, participant 5, single SC 20 mg, plasma): 1030 ng/mL
Tmax [4, 8]: 2 h
Vd [4, 8]: 19.5 L
AUC ([4]; human, in vivo, participant 3, single SC 10 mg, linear trapezoidal, read-out: Area under plasma-concentration-time-curve): 200 ng·h/mL
level at 72 h ([4]; human, plasma, two subjects, single SC 10 mg, above the LLOQ, read-out: Plasma concentration at 72 hours): > 62 ng/mL
Area under plasma-concentration-time-curve ([4]; participant 5, single SC 20 mg, linear trapezoidal): 506
Time-to-MEC (time plasma concentrations remained above the minimum effective concentration) ([4]; single SC 10 mg): 72 h
Time-to-MEC (time plasma concentrations remained above the minimum effective concentration) ([4]; single SC 20 mg): 96 h
Half-life, range over the three participants ([4]; single SC 10, 10 and 20 mg): 46 to 54 h
clearance ([5]; IV 1.0 mg/kg): 0.29 mL/min/kg
AUC(0-inf) ([5]; IV 1.0 mg/kg in 10 mM PBS): 10.8 µM·h
Vd ([5]; IV 1.0 mg/kg, read-out: Vdss): 0.05 L/kg
half-life ([5]; IV 1.0 mg/kg, read-out: t½ (converted)): 1.97 h
Cmax ([5]; SC 3.5 mg/kg): 1120 nM
Tmax ([5]; SC 3.5 mg/kg): 5.3 h
bioavailability ([5]; SC 3.5 mg/kg): 30.3%
AUC(0-inf) ([5]; SC 3.5 mg/kg in 10 mM PBS): 11.5 µM·h
